# From patent US20230091047A1 (priority 2019, published 2023)
# Read-outs that look alike come from different tables or passages of the source.
# Columns and labels:
# [1] = system: HBV (HepG2.117 cell line, inducibly HBV producing); experiment: Anti-HBV activity: intracellular HBV DNA by real-time PCR in HepG2.117 cells after 3 days of treatment; assay type: cell-based, hepatitis B virus
# In short: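 Tet-off HepG2.117; HBV replication induced (no doxycycline); serial compound dilutions, 3 d; intracellular HBV DNA by real-time PCR, HBV-specific primers/probe.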
# in vitro = assay type: cell-based; conditions: human, HepG2 or HepG2.117 cells, ATPlite, mean value
# In short: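 Luminescent ATP quantitation served as the viability endpoint following a 3- or 4-day incubation with test compounds.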
# [2] = Hepatitis B virus, HepG2.117, 72 h, HepG2.117 cells, 3 days of treatment, intracellular HBV DNA by real-time PCR; mean value; read-out: EC50 (μM, mean value)
# [3] = 3-days incubation (unmarked values)
# [4] = Hepatitis B virus, HepG2.117, 72 h, HepG2.117 cells, intracellular HBV DNA by real-time PCR, 3 days of treatment, mean value; read-out: EC50 (μM, mean value)
# [5] = 3-days incubation (not marked with *)
Structure (SMILES),"EC50 [1, 2] [µM]",CC50 at 3 days (in vitro; [3]) [µM],"EC50 [1, 4] [µM]",CC50 at 3 days (in vitro; [5]) [µM]
"COc1ccc(CNc2nc3c(c(=O)n2Cc2ccccc2)CCN(C(=O)c2ccc(Cl)c(Cl)c2)C3)cc1 [Compound C41, 3-benzyl-7-(3,4-dichlorobenzoyl)-2-{[(4-methoxyphenyl)methyl]amino}-5,6,7,8-tetrahydropyrido[3,4-d]pyrimidin-4(3H)-one]",8.7,> 50,,
"CNC(=O)c1ccc(-n2c(N[C@@H](C)c3cccc(F)c3)nc3c(c2=O)C[C@@H](C)N(C(=O)c2ccc(Cl)c(Cl)c2)C3)cc1 [Compound C306, 4-[(6R)-7-(3,4-dichlorobenzoyl)-2-{[(1S)-1-(3-fluorophenyl)ethyl]amino}-6-methyl-4-oxo-5,6,7,8-tetrahydropyrido[3,4-d]pyrimidin-3(4H)-yl]-N-methylbenzamide]",0.08,19.3,,
"CNC(=O)c1ccc(-n2c(N[C@@H](C)C3CC3)nc3c(c2=O)C[C@@H](C)N(C(=O)c2ccc(Cl)c(C(F)(F)F)c2)C3)c(Cl)c1 (single isomer, unassigned) [Compound C676a]",,,0.03,> 50
CNC(=O)c1ccc(-n2c(NC(C)c3cc(C)no3)nc3c(c2=O)C[C@@H](C)N(C(=O)c2ccc(Cl)c(Cl)c2)C3)cc1 (stereo partly shown) [Compound C433],,,0.33,> 50
"COc1ccccc1-n1c(N[C@@H](C)CO)nc2c(c1=O)CCN(C(=O)c1ccc(Cl)c(Cl)c1)C2 (single isomer, unassigned) [Compound C62Ba, 7-(3,4-dichlorobenzoyl)-2-{[(2*S)-1-hydroxypropan-2-yl]amino}-3-(2-methoxyphenyl)-5,6,7,8-tetrahydropyrido[3,4-d]pyrimidin-4(3H)-one]",3.65,> 50,,
"CNC(=O)c1ccc(-n2c(N(C)C34CC(C3)C4)nc3c(c2=O)C[C@@H](C)N(C(=O)c2ccc(Cl)c(Cl)c2)C3)cc1 [Compound C345, 4-[(6R)-2-[(bicyclo[1.1.1]pentan-1-yl)(methyl)amino]-7-(3,4-dichlorobenzoyl)-6-methyl-4-oxo-5,6,7,8-tetrahydropyrido[3,4-d]pyrimidin-3(4H)-yl]-N-methylbenzamide]",0.32,21.6,,
CNC(=O)c1ccc(-n2c(NC(C)c3cn(C)nn3)nc3c(c2=O)C[C@@H](C)N(C(=O)c2ccc(Cl)c(Cl)c2)C3)cc1 (stereo partly shown) [Compound C489],,,> 25,> 50
"Cc1ncccc1-n1c(NC(C)C)nc2c(c1=O)CCN(C(=O)c1ccc(Cl)c(Cl)c1)C2 [Compound C99, 7-(3,4-dichlorobenzoyl)-3-(2-methylpyridin-3-yl)-2-[(propan-2-yl)amino]-5,6,7,8-tetrahydropyrido[3,4-d]pyrimidin-4(3H)-one]",2.05,28.3,,
"COc1ccc(CNc2nc3c(c(=O)n2-c2cccnc2C)CCN(C(=O)c2ccc(Cl)c(Cl)c2)C3)cc1 [Compound C96, 7-(3,4-dichlorobenzoyl)-2-{[(4-methoxyphenyl)methyl]amino}-3-(2-methylpyridin-3-yl)-5,6,7,8-tetrahydropyrido[3,4-d]pyrimidin-4(3H)-one]",0.65,24.3,,
"CC(C)Nc1nc2c(c(=O)n1-c1ccc(-c3ncccn3)cc1)CCN(C(=O)c1ccc(Cl)c(Cl)c1)C2 [Compound C187, 7-(3,4-dichlorobenzoyl)-2-[(propan-2-yl)amino]-3-[4-(pyrimidin-2-yl)phenyl]-5,6,7,8-tetrahydropyrido[3,4-d]pyrimidin-4(3H)-one]",0.71,> 45,,
"CC(C)Nc1nc2c(c(=O)n1-c1ccc(S(C)(=O)=O)cc1)C[C@H](c1ccc(F)cc1)N(C(=O)c1ccc(Cl)c(Cl)c1)C2 (single isomer, unassigned) [Compound C110B, (6*R)-7-(3,4-dichlorobenzoyl)-6-(4-fluorophenyl)-3-[4-(methanesulfonyl)phenyl]-2-[(propan-2-yl)amino]-5,6,7,8-tetrahydropyrido[3,4-d]pyrimidin-4(3H)-one]",6.38,> 50,,
"COc1ccccc1-n1c(NCC2CCN(C(C)=O)CC2)nc2c(c1=O)CCN(C(=O)c1ccc(Cl)c(Cl)c1)C2 [Compound C25, 2-{[(1-acetylpiperidin-4-yl)methyl]amino}-7-(3,4-dichlorobenzoyl)-3-(2-methoxyphenyl)-5,6,7,8-tetrahydropyrido[3,4-d]pyrimidin-4(3H)-one]",44.7,> 50,,
"CC(C)Nc1nc2c(c(=O)n1-c1ccc(S(C)(=O)=O)cc1)CCN(C(=O)c1ccn3nccc3c1)C2 [Compound C138, 3-[4-(methanesulfonyl)phenyl]-2-[(propan-2-yl)amino]-7-(pyrazolo[1,5-a]pyridine-5-carbonyl)-5,6,7,8-tetrahydropyrido[3,4-d]pyrimidin-4(3H)-one]",5.98,> 50,,
CNC(=O)c1ccc(-n2c(N[C@@H](C)C(C)C)nc3c(c2=O)C[C@@H](C)N(C(=O)c2ccc(Cl)c(Cl)c2)C3)cc1 [Compound C390],,,0.08,26.5
"COCCn1c(NCc2ccccc2)nc2c(c1=O)CCN(C(=O)c1ccc(Cl)c(Cl)c1)C2 [Compound C28, 2-(benzylamino)-7-(3,4-dichlorobenzoyl)-3-(2-methoxyethyl)-5,6,7,8-tetrahydropyrido[3,4-d]pyrimidin-4(3H)-one]",9.1,25.2,,
CNC(=O)c1ccc(-n2c(N[C@@H](C)c3ccccc3Cl)nc3c(c2=O)C[C@@H](C)N(C(=O)c2ccc(Cl)c(Cl)c2)C3)cc1 [Compound C445],,,0.28,24.1
"CNC(=O)c1ccc(-n2c(N[C@H](C)c3cc(C)no3)nc3c(c2=O)C[C@@H](C)N(C(=O)c2ccc(Cl)c(Cl)c2)C3)cc1 (single isomer, unassigned) [Compound C433a]",,,1.89,> 50
CNC(=O)c1cc(-n2c(NC(C)C)nc3c(c2=O)C[C@@H](C)N(C(=O)c2ccc(Cl)c(Cl)c2)C3)n(C(C)C)n1 [Compound C424],,,0.93,> 50
CNC(=O)c1ccc(-n2c(NC(C)C)nc3c(c2=O)C[C@@H](C)N(C(=O)c2cc4c(C)cc(F)cc4[nH]2)C3)cc1 [Compound C564],,,0.02,21.7
"COc1ccccc1-n1c(NC(C)c2ccncc2)nc2c(c1=O)CCN(C(=O)c1ccc(Cl)c(Cl)c1)C2 (stereo not shown) [Compound C56, 7-(3,4-dichlorobenzoyl)-3-(2-methoxyphenyl)-2-{[1-(pyridin-4-yl)ethyl]amino}-5,6,7,8-tetrahydropyrido[3,4-d]pyrimidin-4(3H)-one]",1.93,> 50,,
"CNC(=O)c1ccc(-n2c(N[C@H](C)C3CC3)nc3c(c2=O)C[C@@H](C)N(C(=O)c2ccc(Cl)c(Cl)c2)C3)cc1 [Compound C295, 4-[(6R)-2-{[(1R)-1-cyclopropylethyl]amino}-7-(3,4-dichlorobenzoyl)-6-methyl-4-oxo-5,6,7,8-tetrahydropyrido[3,4-d]pyrimidin-3(4H)-yl]-N-methylbenzamide]",0.22,37.2,,
"CC(C)Nc1nc2c(c(=O)n1-c1ccc(C(=O)NCCN3CCN(C)CC3)cc1)C[C@@H](C)N(C(=O)c1ccc(Cl)c(Cl)c1)C2 [Compound C208, 4-[(6R)-7-(3,4-dichlorobenzoyl)-6-methyl-4-oxo-2-[(propan-2-yl)amino]-5,6,7,8-tetrahydropyrido[3,4-d]pyrimidin-3(4H)-yl]-N-[2-(4-methylpiperazin-1-yl)ethyl]benzamide]",0.62,26.3,,
"CNC(=O)c1ccc(-n2c(N[C@H](C)c3ccccc3OC(F)F)nc3c(c2=O)C[C@@H](C)N(C(=O)c2ccc(Cl)c(Cl)c2)C3)cc1 (single isomer, unassigned) [Compound C438a]",,,0.73,29.2
CNC(=O)c1ccc(-n2c(NC3COC(C4CC4)C3)nc3c(c2=O)C[C@@H](C)N(C(=O)c2ccc(Cl)c(Cl)c2)C3)cc1 (stereo partly shown) [Compound C549],,,1.22,> 50
"COc1ccccc1-n1c(NC2CCCC2)nc2c(c1=O)CCN(C(=O)c1ccc(Cl)c(Cl)c1)C2 [Compound C45, 2-(cyclopentylamino)-7-(3,4-dichlorobenzoyl)-3-(2-methoxyphenyl)-5,6,7,8-tetrahydropyrido[3,4-d]pyrimidin-4(3H)-one]",6.62,27.2,,
"CC(C)Nc1nc2c(c(=O)n1-c1ccc(N3CC[C@H](O)C3)cc1)C[C@@H](C)N(C(=O)c1ccc(Cl)c(Cl)c1)C2 [Compound C200, (6R)-7-(3,4-dichlorobenzoyl)-3-{4-[(3S)-3-hydroxypyrrolidin-1-yl]phenyl}-6-methyl-2-[(propan-2-yl)amino]-5,6,7,8-tetrahydropyrido[3,4-d]pyrimidin-4(3H)-one]",0.2,35.4,,
CNC(=O)c1cc(C)c(-n2c(NC(C)C)nc3c(c2=O)C[C@@H](C)N(C(=O)c2ccc(Cl)c(Cl)c2)C3)c(C)c1 [Compound C391],,,0.18,> 50
"CNC(=O)c1ccc(-n2c(NC(C)C)nc3c(c2=O)C[C@@H](C)N(C(=O)c2ccc(Cl)c(Cl)c2)C3)cc1 [Compound C157, 4-[(6R)-7-(3,4-dichlorobenzoyl)-6-methyl-4-oxo-2-[(propan-2-yl)amino]-5,6,7,8-tetrahydropyrido[3,4-d]pyrimidin-3(4H)-yl]-N-methylbenzamide]",0.04,> 50,,
CNC(=O)c1ccc(-n2c(NC(C)Cn3cncn3)nc3c(c2=O)C[C@@H](C)N(C(=O)c2ccc(Cl)c(Cl)c2)C3)cc1 (stereo partly shown) [Compound C540],,,15.8,> 50
